Consider five compounds from ChEMBL document CHEMBL1132765, “Synthesis and antibacterial activity of new carbapenems containing isoxazole moiety” (2000).

Molecules are shown by their SMILES. Values after ≈ are worked out from the molar mass of the structure shown.

One assay has as its target T1, Dipeptidase 1 (Sus scrofa) (UniProt P22412).
T1 sequence (whole entry): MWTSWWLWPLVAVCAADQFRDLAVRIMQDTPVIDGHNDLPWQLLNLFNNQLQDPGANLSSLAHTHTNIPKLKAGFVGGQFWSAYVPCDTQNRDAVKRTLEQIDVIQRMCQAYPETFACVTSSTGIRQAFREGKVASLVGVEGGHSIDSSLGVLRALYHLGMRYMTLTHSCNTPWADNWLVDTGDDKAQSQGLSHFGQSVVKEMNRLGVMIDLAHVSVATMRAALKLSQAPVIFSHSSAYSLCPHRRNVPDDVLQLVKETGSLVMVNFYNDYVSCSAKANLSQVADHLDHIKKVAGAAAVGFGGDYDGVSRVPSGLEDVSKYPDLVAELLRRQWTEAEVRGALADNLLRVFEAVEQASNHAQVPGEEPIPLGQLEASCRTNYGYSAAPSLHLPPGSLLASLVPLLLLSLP
Put plainly: Relative t1/2 hydrolysis to meropenem by partially purified porcine renal DHP-1. It is filed as functional.
Details: not given
`C[C@@H](O)[C@H]1C(=O)N2C(C(=O)O)=C(S[C@@H]3CN[C@H](C4CC(CO)=NO4)C3)[C@H](C)[C@H]12` (stereo in doubt; form 1): the Relative t1/2 stood at 1.09.

As to `C[C@@H](O)[C@H]1C(=O)N2C(C(=O)O)=C(S[C@@H]3CN[C@H](C4CC[N+](C)(C)O4)C3)[C@H](C)[C@H]12.[Cl-]` (stereo partly specified), the Relative t1/2 was 1.5.

`C[C@@H](O)[C@H]1C(=O)N2C(C(=O)O)=C(S[C@@H]3CN[C@H](C4CC(CO)=NO4)C3)[C@H](C)[C@H]12` (stereo in doubt; form 2): the Relative t1/2 was determined as 0.78.

The compound `CCOC(=O)C1=NOC([C@@H]2C[C@H](SC3=C(C(=O)O)N4C(=O)[C@H]([C@@H](C)O)[C@H]4[C@H]3C)CN2)C1` (stereo partly specified) gave a Relative t1/2 of 0.94.

`C[C@@H](O)[C@H]1C(=O)N2C(C(=O)O)=C(S[C@@H]3CN[C@H](C4CC[N+](C)(CC(N)=O)O4)C3)[C@H](C)[C@H]12.[Cl-]` (stereo partly specified) had a Relative t1/2 of 1.66.

The next assay has as its system Enterobacter cloacae. Put plainly: In vitro antibacterial activity against Enterobacter cloacae 1321E. It is filed as functional. As to conditions: Enterobacter cloacae; read-out: MIC.
The MIC is the lowest concentration that inhibits growth of the organism. Regarding `C[C@@H](O)[C@H]1C(=O)N2C(C(=O)O)=C(S[C@@H]3CN[C@H](C4CC[N+](C)(C)O4)C3)[C@H](C)[C@H]12.[Cl-]` (stereo partly specified), the MIC was 0.098 µg/mL.

For the compound `CCOC(=O)C1=NOC([C@@H]2C[C@H](SC3=C(C(=O)O)N4C(=O)[C@H]([C@@H](C)O)[C@H]4[C@H]3C)CN2)C1` (stereo partly specified), the MIC was determined as 0.025 µg/mL (≈ 0.0551 µM).

`C[C@@H](O)[C@H]1C(=O)N2C(C(=O)O)=C(S[C@@H]3CN[C@H](C4CC[N+](C)(CC(N)=O)O4)C3)[C@H](C)[C@H]12.[Cl-]` (stereo partly specified): the MIC was 0.049 µg/mL.

The test system of another assay is Escherichia coli. The experiment in a line: In vitro antibacterial activity against Escherichia coli 078. The settings on record: Escherichia coli; read-out: MIC. It is filed as functional.
For `C[C@@H](O)[C@H]1C(=O)N2C(C(=O)O)=C(S[C@@H]3CN[C@H](C4CC[N+](C)(C)O4)C3)[C@H](C)[C@H]12.[Cl-]` (stereo partly specified), the minimal inhibitory concentration (MIC) turned out to be 0.195 µg/mL.

Consider `CCOC(=O)C1=NOC([C@@H]2C[C@H](SC3=C(C(=O)O)N4C(=O)[C@H]([C@@H](C)O)[C@H]4[C@H]3C)CN2)C1` (stereo partly specified), for which the MIC came to 0.013 µg/mL (≈ 0.0287 µM).

On to `C[C@@H](O)[C@H]1C(=O)N2C(C(=O)O)=C(S[C@@H]3CN[C@H](C4CC[N+](C)(CC(N)=O)O4)C3)[C@H](C)[C@H]12.[Cl-]` (stereo partly specified), for which the MIC came out at 0.098 µg/mL.

A further assay has as its system Escherichia coli. Put plainly: In vitro antibacterial activity against Escherichia coli 1507E. As to conditions: Escherichia coli; read-out: MIC. The format is functional.
Regarding `C[C@@H](O)[C@H]1C(=O)N2C(C(=O)O)=C(S[C@@H]3CN[C@H](C4CC[N+](C)(C)O4)C3)[C@H](C)[C@H]12.[Cl-]` (stereo partly specified), the MIC was determined as 0.098 µg/mL.

As for `CCOC(=O)C1=NOC([C@@H]2C[C@H](SC3=C(C(=O)O)N4C(=O)[C@H]([C@@H](C)O)[C@H]4[C@H]3C)CN2)C1` (stereo partly specified), the MIC was 0.013 µg/mL (≈ 0.0287 µM).

As for `C[C@@H](O)[C@H]1C(=O)N2C(C(=O)O)=C(S[C@@H]3CN[C@H](C4CC[N+](C)(CC(N)=O)O4)C3)[C@H](C)[C@H]12.[Cl-]` (stereo partly specified), the minimal inhibitory concentration (MIC) is 0.049 µg/mL.

The test system of another assay is Klebsiella aerogenes. Put plainly: In vitro antibacterial activity against Klebsiella aerogenes 1522E. It is filed as functional. As to conditions: Klebsiella aerogenes; read-out: MIC.
`C[C@@H](O)[C@H]1C(=O)N2C(C(=O)O)=C(S[C@@H]3CN[C@H](C4CC[N+](C)(C)O4)C3)[C@H](C)[C@H]12.[Cl-]` (stereo partly specified): the MIC was determined as 0.195 µg/mL.

Regarding `CCOC(=O)C1=NOC([C@@H]2C[C@H](SC3=C(C(=O)O)N4C(=O)[C@H]([C@@H](C)O)[C@H]4[C@H]3C)CN2)C1` (stereo partly specified), the minimal inhibitory concentration (MIC) came out at 0.049 µg/mL (≈ 0.108 µM).

In the case of `C[C@@H](O)[C@H]1C(=O)N2C(C(=O)O)=C(S[C@@H]3CN[C@H](C4CC[N+](C)(CC(N)=O)O4)C3)[C@H](C)[C@H]12.[Cl-]` (stereo partly specified), the MIC was determined as 0.195 µg/mL.

A further assay concerns Pseudomonas aeruginosa. Put plainly: In vitro antibacterial activity against Pseudomonas aeruginosa 1592E. The format is functional. The settings on record: Pseudomonas aeruginosa; read-out: MIC.
As to `C[C@@H](O)[C@H]1C(=O)N2C(C(=O)O)=C(S[C@@H]3CN[C@H](C4CC[N+](C)(C)O4)C3)[C@H](C)[C@H]12.[Cl-]` (stereo partly specified), the MIC amounted to 0.391 µg/mL.

Regarding `CCOC(=O)C1=NOC([C@@H]2C[C@H](SC3=C(C(=O)O)N4C(=O)[C@H]([C@@H](C)O)[C@H]4[C@H]3C)CN2)C1` (stereo partly specified), the MIC came out at 0.781 µg/mL (≈ 1.72 µM).

For the compound `C[C@@H](O)[C@H]1C(=O)N2C(C(=O)O)=C(S[C@@H]3CN[C@H](C4CC[N+](C)(CC(N)=O)O4)C3)[C@H](C)[C@H]12.[Cl-]` (stereo partly specified), the MIC amounted to 0.391 µg/mL.

For a further assay, the system named is Pseudomonas aeruginosa. Put plainly: In vitro antibacterial activity against Pseudomonas aeruginosa 1771M. It is filed as functional. The settings on record: Pseudomonas aeruginosa; read-out: MIC.
Take `C[C@@H](O)[C@H]1C(=O)N2C(C(=O)O)=C(S[C@@H]3CN[C@H](C4CC[N+](C)(C)O4)C3)[C@H](C)[C@H]12.[Cl-]` (stereo partly specified): the MIC is 0.195 µg/mL.

As for `CCOC(=O)C1=NOC([C@@H]2C[C@H](SC3=C(C(=O)O)N4C(=O)[C@H]([C@@H](C)O)[C@H]4[C@H]3C)CN2)C1` (stereo partly specified), the MIC stood at 0.391 µg/mL (≈ 0.862 µM).

As to `C[C@@H](O)[C@H]1C(=O)N2C(C(=O)O)=C(S[C@@H]3CN[C@H](C4CC[N+](C)(CC(N)=O)O4)C3)[C@H](C)[C@H]12.[Cl-]` (stereo partly specified), the minimum inhibitory concentration (MIC) came out at 0.195 µg/mL.

For the next assay, the system named is Pseudomonas aeruginosa. Put plainly: In vitro antibacterial activity against Pseudomonas aeruginosa 9027. As to conditions: Pseudomonas aeruginosa; read-out: MIC. It is filed as functional.
As to `C[C@@H](O)[C@H]1C(=O)N2C(C(=O)O)=C(S[C@@H]3CN[C@H](C4CC[N+](C)(C)O4)C3)[C@H](C)[C@H]12.[Cl-]` (stereo partly specified), the MIC is 0.391 µg/mL.

Turning to `CCOC(=O)C1=NOC([C@@H]2C[C@H](SC3=C(C(=O)O)N4C(=O)[C@H]([C@@H](C)O)[C@H]4[C@H]3C)CN2)C1` (stereo partly specified), the MIC worked out at 0.781 µg/mL (≈ 1.72 µM).

In the case of `C[C@@H](O)[C@H]1C(=O)N2C(C(=O)O)=C(S[C@@H]3CN[C@H](C4CC[N+](C)(CC(N)=O)O4)C3)[C@H](C)[C@H]12.[Cl-]` (stereo partly specified), the MIC was determined as 0.195 µg/mL.

Another assay deals with Salmonella typhimurium. The experiment in a line: In vitro antibacterial activity against Salmonella Typhimurium. The settings on record: Salmonella enterica; read-out: MIC. The format is functional, Salmonella enterica subsp. enterica serovar Typhimurium.
As to `C[C@@H](O)[C@H]1C(=O)N2C(C(=O)O)=C(S[C@@H]3CN[C@H](C4CC[N+](C)(C)O4)C3)[C@H](C)[C@H]12.[Cl-]` (stereo partly specified), the MIC was 0.195 µg/mL.

Take `CCOC(=O)C1=NOC([C@@H]2C[C@H](SC3=C(C(=O)O)N4C(=O)[C@H]([C@@H](C)O)[C@H]4[C@H]3C)CN2)C1` (stereo partly specified): the MIC was 0.049 µg/mL (≈ 0.108 µM).

With `C[C@@H](O)[C@H]1C(=O)N2C(C(=O)O)=C(S[C@@H]3CN[C@H](C4CC[N+](C)(CC(N)=O)O4)C3)[C@H](C)[C@H]12.[Cl-]` (stereo partly specified), the MIC is 0.195 µg/mL.

The test system of another assay is Staphylococcus aureus. Put plainly: In vitro antibacterial activity against Staphylococcus aureus 285. The format is functional. The settings on record: Staphylococcus aureus; read-out: MIC.
In the case of `C[C@@H](O)[C@H]1C(=O)N2C(C(=O)O)=C(S[C@@H]3CN[C@H](C4CC[N+](C)(C)O4)C3)[C@H](C)[C@H]12.[Cl-]` (stereo partly specified), the MIC was 0.195 µg/mL.

With `CCOC(=O)C1=NOC([C@@H]2C[C@H](SC3=C(C(=O)O)N4C(=O)[C@H]([C@@H](C)O)[C@H]4[C@H]3C)CN2)C1` (stereo partly specified), the MIC is 0.391 µg/mL (≈ 0.862 µM).

Regarding `C[C@@H](O)[C@H]1C(=O)N2C(C(=O)O)=C(S[C@@H]3CN[C@H](C4CC[N+](C)(CC(N)=O)O4)C3)[C@H](C)[C@H]12.[Cl-]` (stereo partly specified), the MIC is 0.098 µg/mL.

The next assay concerns Staphylococcus aureus. Put plainly: In vitro antibacterial activity against Staphylococcus aureus 503. The settings on record: Staphylococcus aureus; read-out: MIC. The format is functional.
Regarding `C[C@@H](O)[C@H]1C(=O)N2C(C(=O)O)=C(S[C@@H]3CN[C@H](C4CC[N+](C)(C)O4)C3)[C@H](C)[C@H]12.[Cl-]` (stereo partly specified), the MIC was 0.049 µg/mL.

Consider `CCOC(=O)C1=NOC([C@@H]2C[C@H](SC3=C(C(=O)O)N4C(=O)[C@H]([C@@H](C)O)[C@H]4[C@H]3C)CN2)C1` (stereo partly specified), for which the MIC was found to be 0.098 µg/mL (≈ 0.216 µM).

As for `C[C@@H](O)[C@H]1C(=O)N2C(C(=O)O)=C(S[C@@H]3CN[C@H](C4CC[N+](C)(CC(N)=O)O4)C3)[C@H](C)[C@H]12.[Cl-]` (stereo partly specified), the MIC is 0.025 µg/mL.

A further assay has as its system Staphylococcus aureus. The experiment in a line: In vitro antibacterial activity against Staphylococcus aureus SG511. The format is functional. As to conditions: Staphylococcus aureus; read-out: MIC.
As for `C[C@@H](O)[C@H]1C(=O)N2C(C(=O)O)=C(S[C@@H]3CN[C@H](C4CC[N+](C)(C)O4)C3)[C@H](C)[C@H]12.[Cl-]` (stereo partly specified), the MIC is 0.098 µg/mL.

For `CCOC(=O)C1=NOC([C@@H]2C[C@H](SC3=C(C(=O)O)N4C(=O)[C@H]([C@@H](C)O)[C@H]4[C@H]3C)CN2)C1` (stereo partly specified), the MIC was determined as 0.195 µg/mL (≈ 0.43 µM).

Turning to `C[C@@H](O)[C@H]1C(=O)N2C(C(=O)O)=C(S[C@@H]3CN[C@H](C4CC[N+](C)(CC(N)=O)O4)C3)[C@H](C)[C@H]12.[Cl-]` (stereo partly specified), the MIC is 0.049 µg/mL.

Another assay has as its system Streptococcus pyogenes. Put plainly: In vitro antibacterial activity against Streptococcus pyogenes 308A. The format is functional. As to conditions: Streptococcus pyogenes; read-out: MIC.
`C[C@@H](O)[C@H]1C(=O)N2C(C(=O)O)=C(S[C@@H]3CN[C@H](C4CC[N+](C)(C)O4)C3)[C@H](C)[C@H]12.[Cl-]` (stereo partly specified): the MIC amounted to 0.013 µg/mL.

For the compound `CCOC(=O)C1=NOC([C@@H]2C[C@H](SC3=C(C(=O)O)N4C(=O)[C@H]([C@@H](C)O)[C@H]4[C@H]3C)CN2)C1` (stereo partly specified), the MIC stood at 0.025 µg/mL (≈ 0.0551 µM).

Consider `C[C@@H](O)[C@H]1C(=O)N2C(C(=O)O)=C(S[C@@H]3CN[C@H](C4CC[N+](C)(CC(N)=O)O4)C3)[C@H](C)[C@H]12.[Cl-]` (stereo partly specified), for which the MIC turned out to be 0.007 µg/mL.
